# Measured values taken from patent publication US11331295B2, “High-dose statins for age-related macular degeneration” (MASSACHUSETTS EYE AND EAR INFIRMARY, priority 2015, dated 2022).
# Read-outs that look alike come from different tables or passages of the source.
# Tests used:
# ARPE-19 cells = experiment: Phagocytosis analysis by flow cytometry (fluorescent carboxylate microspheres); assay type: cell-based, human; conditions: 6 hours; for percentage of ARPE-19 phagocytic cells / mean fluorescence intensity (phagocytic index): 50 μM statin; for percentage of ARPE-19 phagocytic cells: control 31%; for mean fluorescence intensity (phagocytic index): control 332; for percentage of phagocytic ARPE-19 cells: DMSO control 31%; for mean fluorescence intensity of cells: control 340
# Procedure: A flow cytometric assay was used to evaluate cell phagocytosis according to a protocol described by Pranab (Mukherjee et al., 2007 Proc Natl Acad Sci USA 104:13158-63). Briefly, ARPE-19 cells were seeded in 12-well plates and cultured until 90% confluent. […] After incubation, cells were washed with PBS three times to remove any extracellular beads, then trypsinized (0.25% trypsin-EDTA, Gibco, US) for 1 minute, and neutralized with pre-warmed culture medium. The cell suspension was collected and centrifuged (241 g, 5 minutes). The cell pellet was re-suspended in 0.5 ml PBS for each sample. Subsequently, the cells were analyzed for green phagocytized fluorescent beads (excitation wavelength of 441 nm and emission wavelength of 486 nm) by a FACScalibur flow cytometer using the CellQuest 3.0.1 (Becton & Dickinson, Mountain View, Calif., US) and FlowJo 10.0 software. The percent of phagocytic cells present in each group was recorded as well as the mean fluorescence intensity of engulfed particles.
# The percentage of phagocytic ARPE-19 cells and the mean fluorescence intensity of engulfed particles per group were measured by flow cytometry 6 hours after treatment.
# Vavvas et al., 2016 EBioMedicine 5:198-203). […] The effects of cholesterol crystals and ox-LDL on the phagocytic function of RPE cells were studied because impairment of this function is linked to AMD (Nandrot et al., 2007 Adv Exp Med Biol 801:978-1). ARPE-19 cells were treated with 2 mg/ml cholesterol crystals for 6 hours, or 300 μg/ml oxLDL for 18 hours. The phagocytic function was then assessed by flow cytometry, as described in the methods.
# IL-6 = IL-6 secretion from ARPE-19 cells (western blot of culture medium); assay type: cell-based, human
# Procedure: (§1) ARPE-19 cells were seeded in 6-well plates at a density of 1×10^5 cells/well. […] The membrane was then washed and incubated with secondary antibodies. The membrane was developed with enhanced chemiluminescence. The intensity of protein bands was measured using the software Image Lab 4.1 (Bio-Rad, Hercules, Calif., US).
# Cholesterol crystals induce the secretion of the inflammatory cytokines IL-6 and IL-8 in ARPE-19 cells (Hu et al., 2014 Discovery Med. 18(97):7-14). […] The levels of IL-6 and IL-8 were evaluated using western blot or ELISA. As expected, cholesterol crystals increased ARPE-19 secretion of IL-6 and IL-8, 3.2- and 2.5-fold, respectively, compared to control treatment (FIGS. 7A and B). […] Similar to cholesterol crystals, incubation of ARPE-19 with ox-LDL led to a 2.6- and 1.3-fold increase in secreted IL-6 and IL-8, respectively.
# [1] = tested on: patients with AMD with many large, soft drusen/drusenoid PEDs
# Procedure: (§2) A case report and pilot multi-center prospective interventional study were conducted with IRB approval. Inclusion criteria were patients over the age of 50 with diagnosis of AMD and the presence of many large, soft drusen/drusenoid PEDs in both eyes. […] Pseudophakia was not a reason for exclusion, unless accompanied by significant posterior capsular opacity.
# [2] = tested on: patient with AMD (large soft drusen); experiment: Report of initial case: 80 mg atorvastatin daily in a patient with AMD; assay type: in vivo, human
# Procedure: as §2
# An otherwise healthy person with AMD presented deteriorating visual acuity. Their baseline visual acuity was 20/25 with significant distortion; they were already taking Age-Related Eye Disease Study (AREDS) supplementation. […] Spectral domain optical coherence tomography (SD-OCT) confirmed the significant extent of these deposits and pigment epithelial detachments as well as the overlying RPE and photoreceptor architectural distortion (FIG. 2, top row). No subretinal or intraretinal fluid was present. Standard AREDS supplementation was continued. […]
# IL-8 = IL-8 secretion from ARPE-19 cells (western blot / ELISA); assay type: cell-based, human
# Procedure: as §1
# IL-8 induced by oxLDL was measured by analysis of conditioned media of ARPE-19 cells using an ELISA kit (IL-8, R&D Systems, Minneapolis, Minn., US) according to the manufacturer's instructions.
# Cholesterol crystals induce the secretion of the inflammatory cytokines IL-6 and IL-8 in ARPE-19 cells (Hu et al., 2014 Discovery Med. 18(97):7-14). […] The levels of IL-6 and IL-8 were evaluated using western blot or ELISA. As expected, cholesterol crystals increased ARPE-19 secretion of IL-6 and IL-8, 3.2- and 2.5-fold, respectively, compared to control treatment (FIGS. 7A and B). […]. […].
# [3] = 50 μM atorvastatin, 300 μg/ml ox-LDL 18 hours
# [4] = 50 μM atorvastatin, cholesterol crystals
# [5] = six months after 80 mg atorvastatin
smiles,measurement,setting,value
CCC(C)(C)C(=O)O[C@H]1C[C@@H](C)C=C2C=C[C@H](C)[C@H](CC[C@@H]3C[C@@H](O)CC(=O)O3)[C@H]21 [simvastatin],percentage of ARPE-19 phagocytic cells,ARPE-19 cells,56%
same,mean fluorescence intensity (phagocytic index),ARPE-19 cells,513
CC[C@H](C)C(=O)O[C@H]1C[C@@H](C)C=C2C=C[C@H](C)[C@H](CC[C@@H]3C[C@@H](O)CC(=O)O3)[C@H]21 [lovastatin],percentage of ARPE-19 phagocytic cells,ARPE-19 cells,53%
same,mean fluorescence intensity (phagocytic index),ARPE-19 cells,502
CC(C)c1c(C(=O)Nc2ccccc2)c(-c2ccccc2)c(-c2ccc(F)cc2)n1CC[C@@H](O)C[C@@H](O)CC(=O)O [atorvastatin],percentage of phagocytic ARPE-19 cells,ARPE-19 cells; 1 μM atorvastatin,35%
same,mean fluorescence intensity of cells,ARPE-19 cells; 1 μM atorvastatin,368
same,percentage of phagocytic ARPE-19 cells,ARPE-19 cells; 25 μM atorvastatin,40%
same,mean fluorescence intensity of cells,ARPE-19 cells; 25 μM atorvastatin,443
same,decrease in mean fluorescence intensity induced by ox-LDL,ARPE-19 cells; [3],completely reversed
same,decrease in the percentage of phagocytic cells induced by ox-LDL,ARPE-19 cells; [3],completely reversed
same,percentage of phagocytic ARPE-19 cells,ARPE-19 cells; 50 μM atorvastatin,42%
same,decrease in mean fluorescence intensity induced by cholesterol crystals,ARPE-19 cells; [4],completely reversed
same,decrease in the percentage of phagocytic cells induced by cholesterol crystals,ARPE-19 cells; [4],completely reversed
same,mean fluorescence intensity of cells,ARPE-19 cells; 50 μM atorvastatin,453
same,percentage of ARPE-19 phagocytic cells,ARPE-19 cells,43%
same,percentage of phagocytic ARPE-19 cells,ARPE-19 cells; 75 μM atorvastatin,46%
same,mean fluorescence intensity of cells,ARPE-19 cells; 75 μM atorvastatin,467
same,levels of IL-6 compared to control,"IL-6; 0.1 μM atorvastatin pretreatment, cholesterol crystals (3.2-fold alone)",1.7 fold
same,levels of IL-6 compared to control,"IL-6; 0.1 μM atorvastatin pretreatment, ox-LDL (2.6-fold alone)",1.9 fold
same,levels of IL-6 compared to control,"IL-6; 0.5 μM atorvastatin pretreatment, ox-LDL (2.6-fold alone)",1.3 fold
same,levels of IL-6 compared to control,"IL-6; 1 μM atorvastatin pretreatment, cholesterol crystals (3.2-fold alone)",0.8 fold
same,levels of IL-6 compared to control,"IL-6; 1 μM atorvastatin pretreatment, ox-LDL (2.6-fold alone)",1.4 fold
same,Chol. Reduction,[1]; All (n = 23),−62 +/− 35
same,Last VA (letters),"[1]; All (n = 23), initial 77.6 +/- 8.3",77.7 +/− 8.4 letters
same,Last Cholesterol,"[1]; All (n = 23), initial 208 +/- 34.9",147 +/− 31
same,Chol. Reduction,[1]; Non Responders (n = 13),71 +/− 35.9
same,VA gain (loss),[1]; Non Responders (n = 13),−2.3
same,Last VA (letters),"[1]; Non Responders (n = 13), initial 80.2 +/- 6",77.9 +/− 7.1 letters
same,Last Cholesterol,"[1]; Non Responders (n = 13), initial 207 +/- 37.4",136 +/− 24.4
same,Chol. Reduction,[1]; Responders (n = 10),49 +/− 31.2
same,VA gain (loss),[1]; Responders (n = 10),+3.3
same,Last VA (letters),"[1]; Responders (n = 10), initial 74.2 +/- 9.9",77.5 +/− 10.3 letters
same,Last Cholesterol,"[1]; Responders (n = 10), initial 210 +/- 33.4",161 +/− 34.2
same,patients showing near-complete regression of drusen deposits,[1]; among 23 patients who completed,eight
same,effect on progression of pigmentary changes or of pre-existing atrophy,[1]; high-dose atorvastatin,did not appear to have a positive or negative effect
same,letters lost on average,[1]; non-responders,2.2 letters
same,"patients who exited the study (cramps, muscle aches, hair loss)",[1]; of 26 patients enrolled,Three
same,patients who responded to the treatment (regression of drusen deposits),[1]; patients who completed the pilot study,Ten of 23
same,average time to response,[1]; responders,11.7 months
same,letters gained on average,[1]; responders,3 letters
same,"time to response, range",[1]; responders,3-22 months
same,visual acuity improved by,"[2]; person with AMD, six months after 80 mg atorvastatin daily",12 letters
same,atrophy of the RPE (SD-OCT),[2]; [5],without accompanying atrophy of the RPE
same,drusen (fundus examination and SD-OCT),[2]; [5],complete disappearance of the drusen
same,visual acuity,"[2]; six months after 80 mg atorvastatin daily, 20/30 before treatment",20/20
same,levels of IL-8 compared to control,"IL-8; 0.1 μM atorvastatin pretreatment, cholesterol crystals (2.5-fold alone), western blot",1.8 fold
same,levels of IL-8 compared to control,"IL-8; 0.1 μM atorvastatin pretreatment, ox-LDL (1.3-fold alone), ELISA",1.2 fold
same,levels of IL-8 compared to control,"IL-8; 0.5 μM atorvastatin pretreatment, cholesterol crystals (2.5-fold alone), western blot",1.6 fold
same,levels of IL-8 compared to control,"IL-8; 0.5 μM atorvastatin pretreatment, ox-LDL (1.3-fold alone), ELISA",1.02 fold
same,levels of IL-8 compared to control,"IL-8; 1 μM atorvastatin pretreatment, cholesterol crystals (2.5-fold alone), western blot",1.1 fold
same,levels of IL-8 compared to control,"IL-8; 1 μM atorvastatin pretreatment, ox-LDL (1.3-fold alone), ELISA",0.99 fold
